Earlier results in US20250108152A1, “DRUG ELUTING POLYMER COMPOSED OF BIODEGRADABLE POLYMERS APPLIED TO SURFACE OF MEDICAL DEVICE” (The General Hospital Corporation, priority 2016, published 2025).

Compound | fraction of intravenous dose that penetrates bone
Cc1nnc(SCC2=C(C(=O)O)N3C(=O)[C@@H](NC(=O)Cn4cnnn4)[C@H]3SC2)s1 [cefazolin] | 7-15%
CO/N=C(\C(=O)N[C@@H]1C(=O)N2C(C(=O)O)=C(CSc3nc(=O)c(=O)[nH]n3C)CS[C@H]12)c1csc(N)n1 [ceftriaxone] | 5-19%
CN[C@H](CC(C)C)C(=O)N[C@H]1C(=O)N[C@@H](CC(N)=O)C(=O)N[C@H]2C(=O)N[C@H]3C(=O)N[C@H](C(=O)N[C@H](C(=O)O)c4cc(O)cc(O)c4-c4cc3ccc4O)[C@H](O)c3ccc(c(Cl)c3)Oc3cc2cc(c3O[C@@H]2O[C@H](CO)[C@@H](O)[C@H](O)[C@H]2O[C@H]2C[C@](C)(N)[C@H](O)[C@H](C)O2)Oc2ccc(cc2Cl)[C@H]1O [vancomycin] | 5-20%
